Measurements as given in patent US20100129428A1, “SUPRA MOLECULAR CONSTRUCT FOR DELIVERY OF INTERFERON TO A MAMMAL” (SDG, Inc., priority 2005, published 2010).

Assays:
[1] = test system: double stranded RNA dependent protein kinase (PKR) gene; assay: Induction of PKR mRNA in liver and spleen of mice, real time quantitative PCR; type: in vivo, mouse
Procedure: The efficacy of HDV-interferon alpha was evaluated in a mouse model having a genetic marker response to the hepatic effect of interferon. C57B16 mice were obtained from Jackson Laboratory and a breeding colony was established at Cleveland MetroHealth Center, Cleveland, Ohio. Mice were obtained from the breeding colony. Two groups of mice, a test group and a control group, were treated. The test group received Interferon+HDV, while the control group received Interferon alone. HDV-Interferon comprised 100 mcg HDV to 10 mcg Interferon alpha. HDV was supplied by Hepasome Pharmaceuticals and Roeferon was the source of the interferon alpha. The HDV and interferon alpha were allowed to equilibrate for 12 hours prior to injection into the mice. Mice from both groups were dosed with 100,000 U/kg body wt. To test the timing of response to IFN, Roferon was subcutaneously injected into the mice. The mice were sacrificed at 6 hours after dosing. The spleen and liver of the sacrificed […] were obtained for analysis. […] The assay used real time quantitative PCR (polymerase chain reaction) to assay the level of PKR messenger ribonucleic acid (mRNA). […] The produced cDNAs were subjected to semi-quantitative PCR, the 6 hour time point was selected for the HDV experiments. […] Real time quantitative PCR was performed on the produced cDNAs using cybr green technology. […]

hepatitis C virus = settings: chronic hepatitis C; treatment with interferon alone; cited from earlier work

For interferon alpha, the “relative expression level in the spleen compared to the relative expression level in the liver” value ([1]; PKR mRNA, C57B16 mice, 100,000 U/kg body wt, subcutaneous, 6 hours after dosing, FIG. 12a) is listed as “approximately twice”, the “increase in PKR activation relative to a baseline” value ([1]; hepatic PKR activation, mouse model, FIG. 13) is listed as about 5 fold and the sustained response (hepatitis C virus) is listed as “less than 15 % of subjects”.
